Test results as given in paper PMC12573178, “Substrate-Guided Development of HDAC11-Selective Inhibitors Featuring α‑Amino Amide Zinc-Binding Groups” (ACS Omega, 2025).
pIC50: −log10 of the molar value.

What was measured:
HEK293 cells = experiment: Metabolic labeling with Alk-14, CuAAC with Cy3-azide, in-gel fluorescence (global fatty-acylation level); type: cell-based; settings: Alk-14 25 μM, 31 20 μM, 24 h
SIRT3 = target: T1, SIRT3 (Homo sapiens, UniProt Q9NTG7); experiment: SIRT3 discontinuous demyristoylation inhibition assay; type: biochemical
T1 sequence (Q9NTG7 1-399): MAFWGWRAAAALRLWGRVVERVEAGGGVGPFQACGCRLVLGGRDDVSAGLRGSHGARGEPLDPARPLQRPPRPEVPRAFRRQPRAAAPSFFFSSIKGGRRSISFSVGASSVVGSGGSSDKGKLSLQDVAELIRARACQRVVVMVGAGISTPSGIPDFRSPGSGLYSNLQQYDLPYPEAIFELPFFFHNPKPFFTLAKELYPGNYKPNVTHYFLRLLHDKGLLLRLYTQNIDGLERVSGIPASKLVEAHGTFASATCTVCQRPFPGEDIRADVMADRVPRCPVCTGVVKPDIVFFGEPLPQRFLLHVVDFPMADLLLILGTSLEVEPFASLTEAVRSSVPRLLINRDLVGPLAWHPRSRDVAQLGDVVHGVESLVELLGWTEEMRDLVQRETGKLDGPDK
Procedure: Inhibition of the enzymatic activity of HDACs was performed continuously for HDAC8, HDAC11, and SIRT2 and discontinuously for SIRT2, 3, and 6 using adequate substrates as described previously. , Experimental details are given in the Supporting Information.
A. HDAC and SIRT deacylase activity assays […]
140 mM NaCl, 10 mM MgCl 2, 1 mM tris(2-carboxyethyl)phosphine (TCEP), and 0.2 mg/ml BSA, pH 7.4 adjusted with NaOH), HDAC11 buffer (20 mM HEPES, 70 µM TCEP and 2 mg/ml BSA, pH 7.4 adjusted with NaOH) or SIRT buffer (20 mM Tris, 150 mM NaCl, 5 mM MgCl2 and 2 mg/ml BSA pH 7.8 adjusted with HCl), respectively. The thiotrifluoracetylated substrate Abz-SRGGK(thio-TFA)FFRR-NH2 (50 µM) […]
Aun is N-(2-aminobenzoyl)-11-aminoundecanoyl, was used for HDAC11 and Ac-EALPKK(Myr)T-C(Fluorescein)-G-NH2 (40 nM) was used for SIRT2 1-3. […]
(substrate, DMSO, and Buffer) controls were included in every measurement and were set as 100% and 0%, respectively. The measured values were normalized accordingly. […]
Reactions were stopped after 20 min by adding a constant volume of reaction mixture to stop solution (5 % acetonitrile (ACN) (v/v) and 1 % trifluoroacetic acid (TFA) (v/v) in dd. H 2O). The samples were analysed using HPLC-UV/VIS at λ Abs = 220 nm, λ Ex = 320 nm und λ Em = 420 nm. […]
100 nM, SIRT3: 200 nM, SIRT6: 500 nM). […] The samples were analysed using HPLC-UV/VIS at λ Abs = 360 nm. […]

[1] = Compound stability in HEK293 cell lysate; type: in vitro ADME; settings: HEK293 cell lysate (1 mg/ml), 37 °C, 150 μM 31, after 24 h
Procedure: (§1) H Stability and permeability of 31 […]
(§2) stability was performed as described 21. Briefly, 400 µl of human serum or cell lysate from HEK293 cells (1 mg/ml) were incubated at 37 °C with 150 μM of 31 with 5% (v/v) DMSO. Samples of 45 µl were taken out at different time points and quenched with 50 µl of aqueous urea (6 M) and 100 µl of ACN.
(§3) Following centrifugation, 2 µl of a 2% (m/v) K 2CO3 solution in H2O and 1.5 µl of a 0.2 M Fmoc-OSu in ACN were added to the samples, which were then shaken at 1000 rpm for two hours at room temperature. This enabled the quantification of the residual amount of the compound via UPLC-UV/VIS at 260 nm. Compound peak areas were integrated. The experiments were performed in triplicate.
(§4) After 24h, 7% of 31 remained […]
(§5) detectable in cell lysate, and 20 % of 31 were still present in human serum (Figure S 38). […]
(§6) shown as mean values relative to the peak intensity at 0 h. Error bars represent the SD of three replicates.
(§7) For cell permeability studies, 40 µM of 31 were incubated with HEK293 cells in DMEM medium supplemented with 10 % FCS at 37°C overnight. The cells were harvested, washed extensively with ice-cold PBS and lysed in RIPA buffer. The sample was diluted 1:1 (v/v) with a solution of ACN : H 2O (1:1 )) before analyzing via UPLC-MS. […]

[2] = Compound stability in human serum; type: in vitro ADME; settings: 37 °C, 150 μM 31, after 24 h
Procedure: as §1, §2, §3, §4, §5, §6, §7

**Q.** For `CCCCCCCCCCCCSC[C@@H](N)C(=O)NCCCC[C@@H]1NC(=O)[C@H](CCC(N)=O)NC1=O` [Compound 31], which “In-gel fluorescence signal (protein fatty acylation)” value (HEK293 cells) is on record?
**A.** The value was “moderately increased the fluorescence signal”.

**Q.** And the pIC50 (SIRT3)?
**A.** The pIC50 was under 4.00.

**Q.** And the inhibition at 50 µM (SIRT3; 50 μM 31)?
**A.** Its inhibition at 50 µM is 1.6%.

**Q.** What about the compound remaining [1] of the same compound?
**A.** The compound remaining was 7%.

**Q.** And the compound remaining [2]?
**A.** Its compound remaining is 20%.
